This is an account of results in US7815946B1, “Anti-diabetic and cholesterol lowering preparation from fenugreek seeds” (priority 2001, dated 2010).

Experiment [1] deals with diabetic rabbits. The settings on record: cited from earlier work.
Experiment [2] has as its system diabetic rabbits. Briefly: Comparison of Menthi, trigonelline and tolbutamide on glucose tolerance. It counts as in vivo, rabbit. To be noted: 100 mg/kg/day for 3 days. Here is the method:
The antidiabetic activity of GII (Menthi) and the alkaloid trigonelline, which can be isolated from fenugreek seeds, were compared. Diabetic rabbits were administered the same dose (100 mg/kg/day) daily for 3 days. The activity of these two was also compared with a standard drug tolbutamide all at the same dosage schedule of 100 mg/Kg/day for 3 days.

For experiment [3] the following is noted: reported by Mishinsky; cited from earlier work.

With fenugreekine, the “blood glucose during GTT” value in the experiment on diabetic rabbits [1] is on record as “could not lower blood glucose”.

As for `CCCCNC(=O)NS(=O)(=O)c1ccc(C)cc1` [Tolbutamide, tolbutamide], the “% Decrease in Blood Glucose Level at 2.5 Hours in GTT” value in the experiment on diabetic rabbits [2] came to 25%.

As for `C[n+]1cccc(C(=O)[O-])c1` [Trigonelline, trigonelline], in the experiment with diabetic rabbits [2], the “% Decrease in Blood Glucose Level at 2.5 Hours in GTT” value is reported as 16%. Further, in experiment [3], the hypoglycemic activity result was “only mild and transient hypoglycemic activity”.
